Our source for the GI50 values is patent US20240132521A1, “COMPOUNDS AND METHODS FOR MODULATING HER2” (Iambic Therapeutics, Inc., priority 2022, published 2024).

Common to all, as to assay type: cell-based
For one assay, the target named is BaF3_HER2WT cells (Homo sapiens, UniProt P04626). The experiment in a line: Cell growth inhibition assay (CellTiterGlo), BaF3_HER2WT. The settings on record: 3-day treatment, CellTiterGlo, read-out: Cell growth inhibition activity, HER2 WT.
In another assay the target is BaF3_HER2YVMA cells (Homo sapiens, UniProt P04626, DUP772-775, cells depend on it). The experiment in a line: Cell growth inhibition assay (CellTiterGlo), BaF3_HER2YVMA. The settings on record: 3-day treatment, CellTiterGlo, read-out: Cell growth inhibition activity, HER2 - YVMA.
For the next assay, the target named is BaF3_EGFRWT cells (Homo sapiens, UniProt P00533). The assay is described as follows: Cell growth inhibition assay (CellTiterGlo), BaF3_EGFRWT. The settings on record: 3-day treatment, CellTiterGlo, read-out: Cell growth inhibition activity, EGFR WT.
Chain of BaF3_EGFRWT cells (P00533 whole entry, change not shown): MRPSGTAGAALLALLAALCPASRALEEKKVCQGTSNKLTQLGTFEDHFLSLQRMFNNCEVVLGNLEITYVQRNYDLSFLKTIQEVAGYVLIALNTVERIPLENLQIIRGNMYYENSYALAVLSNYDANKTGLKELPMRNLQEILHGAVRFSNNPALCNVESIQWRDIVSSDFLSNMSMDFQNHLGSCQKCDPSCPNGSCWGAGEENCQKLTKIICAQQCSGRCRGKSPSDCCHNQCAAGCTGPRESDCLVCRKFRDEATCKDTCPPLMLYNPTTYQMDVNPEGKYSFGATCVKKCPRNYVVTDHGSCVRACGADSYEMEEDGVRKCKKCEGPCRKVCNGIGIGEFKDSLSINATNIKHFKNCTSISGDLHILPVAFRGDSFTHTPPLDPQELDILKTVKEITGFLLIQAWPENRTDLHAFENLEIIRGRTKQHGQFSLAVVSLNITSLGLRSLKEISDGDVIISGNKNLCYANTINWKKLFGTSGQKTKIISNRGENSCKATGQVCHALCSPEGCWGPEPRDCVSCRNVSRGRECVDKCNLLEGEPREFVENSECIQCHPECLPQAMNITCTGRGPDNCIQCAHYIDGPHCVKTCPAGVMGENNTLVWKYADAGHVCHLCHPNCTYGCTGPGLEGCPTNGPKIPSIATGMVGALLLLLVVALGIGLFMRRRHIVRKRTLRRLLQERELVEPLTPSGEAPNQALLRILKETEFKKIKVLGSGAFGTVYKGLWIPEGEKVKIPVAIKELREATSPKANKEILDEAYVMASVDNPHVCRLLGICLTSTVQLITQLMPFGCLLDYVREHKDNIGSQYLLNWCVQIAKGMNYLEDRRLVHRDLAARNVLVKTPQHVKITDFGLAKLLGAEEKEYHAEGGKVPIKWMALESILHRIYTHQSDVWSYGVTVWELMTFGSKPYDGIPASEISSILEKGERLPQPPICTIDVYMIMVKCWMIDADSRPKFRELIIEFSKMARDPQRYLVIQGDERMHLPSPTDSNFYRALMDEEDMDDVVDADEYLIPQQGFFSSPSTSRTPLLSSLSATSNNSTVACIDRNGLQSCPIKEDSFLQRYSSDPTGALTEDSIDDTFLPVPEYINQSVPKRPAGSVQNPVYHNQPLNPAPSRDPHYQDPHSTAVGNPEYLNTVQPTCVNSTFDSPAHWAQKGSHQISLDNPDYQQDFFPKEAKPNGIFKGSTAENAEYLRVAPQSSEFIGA

Chain of BaF3_HER2YVMA cells (P04626 with tags, fused parts or gaps DUP772-775): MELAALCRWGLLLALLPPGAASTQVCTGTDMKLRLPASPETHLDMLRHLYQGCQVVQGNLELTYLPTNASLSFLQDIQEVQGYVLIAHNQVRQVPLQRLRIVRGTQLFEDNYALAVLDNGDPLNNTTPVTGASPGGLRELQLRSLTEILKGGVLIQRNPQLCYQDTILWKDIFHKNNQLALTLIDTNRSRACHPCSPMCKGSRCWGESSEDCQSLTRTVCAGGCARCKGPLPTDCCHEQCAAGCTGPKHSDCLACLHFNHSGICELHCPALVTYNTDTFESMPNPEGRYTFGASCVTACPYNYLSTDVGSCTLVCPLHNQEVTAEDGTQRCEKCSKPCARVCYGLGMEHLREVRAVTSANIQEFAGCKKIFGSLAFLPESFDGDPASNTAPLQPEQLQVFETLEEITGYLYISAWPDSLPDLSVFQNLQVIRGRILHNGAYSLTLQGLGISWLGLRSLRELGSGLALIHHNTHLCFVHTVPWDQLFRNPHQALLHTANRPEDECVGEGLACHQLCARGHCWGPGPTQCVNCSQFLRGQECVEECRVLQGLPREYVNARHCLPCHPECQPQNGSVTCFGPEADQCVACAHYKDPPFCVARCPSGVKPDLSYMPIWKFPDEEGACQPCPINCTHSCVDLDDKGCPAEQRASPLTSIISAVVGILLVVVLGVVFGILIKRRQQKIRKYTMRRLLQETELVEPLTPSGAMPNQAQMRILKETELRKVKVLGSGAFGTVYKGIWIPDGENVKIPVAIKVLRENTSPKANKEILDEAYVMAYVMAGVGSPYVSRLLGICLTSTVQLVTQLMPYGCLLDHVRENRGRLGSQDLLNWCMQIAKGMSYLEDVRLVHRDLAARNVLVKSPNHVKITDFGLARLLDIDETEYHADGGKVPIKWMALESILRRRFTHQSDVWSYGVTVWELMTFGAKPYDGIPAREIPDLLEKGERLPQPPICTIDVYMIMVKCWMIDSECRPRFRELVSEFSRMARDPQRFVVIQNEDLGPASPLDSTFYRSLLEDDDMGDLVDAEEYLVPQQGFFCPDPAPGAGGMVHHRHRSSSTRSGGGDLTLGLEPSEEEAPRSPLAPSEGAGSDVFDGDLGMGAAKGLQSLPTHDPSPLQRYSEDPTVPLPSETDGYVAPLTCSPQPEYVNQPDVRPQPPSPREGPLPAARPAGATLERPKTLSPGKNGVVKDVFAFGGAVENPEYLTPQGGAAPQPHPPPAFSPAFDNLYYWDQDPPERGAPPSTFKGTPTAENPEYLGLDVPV
Chain of BaF3_HER2WT cells (P04626 whole entry, change not shown): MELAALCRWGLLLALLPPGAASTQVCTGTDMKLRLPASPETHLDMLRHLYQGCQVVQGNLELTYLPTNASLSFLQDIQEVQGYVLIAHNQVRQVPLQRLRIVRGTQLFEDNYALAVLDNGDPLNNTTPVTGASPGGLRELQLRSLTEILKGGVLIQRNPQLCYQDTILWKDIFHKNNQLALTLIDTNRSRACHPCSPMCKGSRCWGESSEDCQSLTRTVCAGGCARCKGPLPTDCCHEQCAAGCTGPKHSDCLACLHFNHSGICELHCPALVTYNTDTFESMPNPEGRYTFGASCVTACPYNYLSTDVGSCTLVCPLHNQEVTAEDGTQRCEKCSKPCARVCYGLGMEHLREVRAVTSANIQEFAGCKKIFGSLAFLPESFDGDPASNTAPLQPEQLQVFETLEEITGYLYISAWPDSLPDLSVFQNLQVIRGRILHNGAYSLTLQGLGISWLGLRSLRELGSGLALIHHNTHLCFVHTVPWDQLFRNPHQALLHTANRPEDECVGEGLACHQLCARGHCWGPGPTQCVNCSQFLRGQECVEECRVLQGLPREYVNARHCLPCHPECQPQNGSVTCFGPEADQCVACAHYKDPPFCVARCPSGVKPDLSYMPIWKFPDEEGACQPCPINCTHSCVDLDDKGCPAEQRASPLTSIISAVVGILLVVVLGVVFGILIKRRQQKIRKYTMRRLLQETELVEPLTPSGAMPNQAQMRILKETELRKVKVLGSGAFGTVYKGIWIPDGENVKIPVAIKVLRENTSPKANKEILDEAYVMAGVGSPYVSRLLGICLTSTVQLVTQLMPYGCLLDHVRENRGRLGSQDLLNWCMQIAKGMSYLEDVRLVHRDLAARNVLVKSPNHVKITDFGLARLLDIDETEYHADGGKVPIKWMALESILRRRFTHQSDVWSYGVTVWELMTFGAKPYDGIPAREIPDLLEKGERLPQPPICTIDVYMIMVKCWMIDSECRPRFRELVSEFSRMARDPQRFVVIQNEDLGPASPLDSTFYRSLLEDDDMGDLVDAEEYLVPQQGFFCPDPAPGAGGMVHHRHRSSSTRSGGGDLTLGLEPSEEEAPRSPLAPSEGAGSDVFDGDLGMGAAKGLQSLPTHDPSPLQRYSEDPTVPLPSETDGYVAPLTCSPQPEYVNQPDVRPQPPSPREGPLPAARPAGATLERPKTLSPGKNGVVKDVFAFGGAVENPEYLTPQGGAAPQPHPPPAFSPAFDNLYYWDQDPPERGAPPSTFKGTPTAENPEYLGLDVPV

Turning to `Cc1cc(Nc2ncnn3ccc(N4CCC(N(C)C(=O)/C=C/CN(C)C)C4)c23)ccc1Oc1ccn2ncnc2c1` (stereo not drawn) [Example 70, (E)-N-(1-(4-((4-([1,2,4]triazolo[1,5-a]pyridin-7-yloxy)-3-methylphenyl)amino)pyrrolo[2,1-f][1,2,4]triazin-5-yl)pyrrolidin-3-yl)-4-(dimethylamino)-N-methylbut-2-enamide], the GI50 is below 200 nM at BaF3_HER2WT cells, below 200 nM on BaF3_HER2YVMA cells and 1500 to 5000 nM on BaF3_EGFRWT cells.

With `Cc1cc(Nc2ncnn3ccc(N4CC(NC(=O)/C=C/CN(C)C)C4)c23)ccc1Oc1ccn2ncnc2c1` [Example 71, (E)-N-(1-(4-((4-([1,2,4]triazolo[1,5-a]pyridin-7-yloxy)-3-methylphenyl)amino)pyrrolo[2,1-f][1,2,4]triazin-5-yl)azetidin-3-yl)-4-(dimethylamino)but-2-enamide], the GI50 at BaF3_HER2WT cells is below 200 nM; on BaF3_HER2YVMA cells it was 200 to 500 nM; on BaF3_EGFRWT cells, 1500 to 5000 nM.

Regarding `C=CC(=O)N(C)C1CCN(c2ccn3ncnc(Nc4ccc(Oc5ccn6ncnc6c5)c(C)c4)c23)C1` (stereo not drawn) [Example 72, N-(1-(4-((4-([1,2,4]triazolo[1,5-a]pyridin-7-yloxy)-3-methylphenyl)amino)pyrrolo[2,1-f][1,2,4]triazin-5-yl)pyrrolidin-3-yl)-N-methylacrylamide], the GI50 was below 200 nM at BaF3_HER2WT cells, below 200 nM at BaF3_HER2YVMA cells and 1500 to 5000 nM on BaF3_EGFRWT cells.

As for `Cc1cc(Nc2ncnn3ccc(N4CCC(N(C)C(=O)/C=C/CN(C)C)CC4)c23)ccc1Oc1ccn2ncnc2c1` [Example 73, (E)-N-(1-(4-((4-([1,2,4]triazolo[1,5-a]pyridin-7-yloxy)-3-methylphenyl)amino)pyrrolo[2,1-f][1,2,4]triazin-5-yl)piperidin-4-yl)-4-(dimethylamino)-N-methylbut-2-enamide], the GI50 at BaF3_HER2WT cells is below 200 nM; at BaF3_HER2YVMA cells, 500 to 1500 nM; at BaF3_EGFRWT cells, 1500 to 5000 nM.

For `C=CC(=O)N(C)C1CCN(c2ccn3ncnc(Nc4ccc(Oc5ccn6ncnc6c5)c(C)c4)c23)CC1` [Example 74, N-(1-(4-((4-([1,2,4]triazolo[1,5-a]pyridin-7-yloxy)-3-methylphenyl)amino)pyrrolo[2,1-f][1,2,4]triazin-5-yl)piperidin-4-yl)-N-methylacrylamide], the GI50 at BaF3_HER2WT cells is below 200 nM; at BaF3_HER2YVMA cells, 500 to 1500 nM; at BaF3_EGFRWT cells it was 1500 to 5000 nM.

In the case of `C=CC(=O)N1CCN(c2ccn3ncnc(Nc4ccc(Oc5ccn6ncnc6c5)c(C)c4)c23)CC12CC2` [Example 75, 1-(7-(4-((4-([1,2,4]triazolo[1,5-a]pyridin-7-yloxy)-3-methylphenyl)amino)pyrrolo[2,1-f][1,2,4]triazin-5-yl)-4,7-diazaspiro[2.5]octan-4-yl)prop-2-en-1-one], the GI50 was below 200 nM at BaF3_HER2WT cells, below 200 nM at BaF3_HER2YVMA cells and 500 to 1500 nM at BaF3_EGFRWT cells.

With `C=CC(=O)NC1CCCN(c2ccn3ncnc(Nc4ccc(Oc5ccn6ncnc6c5)c(C)c4)c23)C1` (stereo not drawn) [Example 76, N-(1-(4-((4-([1,2,4]triazolo[1,5-a]pyridin-7-yloxy)-3-methylphenyl)amino)pyrrolo[2,1-f][1,2,4]triazin-5-yl)piperidin-3-yl)acrylamide], the GI50 on BaF3_HER2WT cells was below 200 nM; at BaF3_HER2YVMA cells, 500 to 1500 nM; on BaF3_EGFRWT cells it was 1500 to 5000 nM.

On to `C=CC(=O)N1CC(N(C)c2ccn3ncnc(Nc4ccc(Oc5ccn6ncnc6c5)c(C)c4)c23)C1` [Example 77, 1-(3-((4-((4-([1,2,4]triazolo[1,5-a]pyridin-7-yloxy)-3-methylphenyl)amino)pyrrolo[2,1-f][1,2,4]triazin-5-yl)(methyl)amino)azetidin-1-yl)prop-2-en-1-one], for which the GI50 lay in the range of 200 to 500 nM on BaF3_HER2WT cells, 1500 to 5000 nM at BaF3_HER2YVMA cells and 1500 to 5000 nM on BaF3_EGFRWT cells.

With `C=CC(=O)NC1CCN(c2ccn3ncnc(Nc4ccc(Oc5ccn6ncnc6c5)c(C)c4)c23)CC1` [Example 78, N-(1-(4-((4-([1,2,4]triazolo[1,5-a]pyridin-7-yloxy)-3-methylphenyl)amino)pyrrolo[2,1-f][1,2,4]triazin-5-yl)piperidin-4-yl)acrylamide], the GI50 is below 200 nM on BaF3_HER2WT cells, 200 to 500 nM on BaF3_HER2YVMA cells and 1500 to 5000 nM at BaF3_EGFRWT cells.

`C=CC(=O)NC1CCN(c2ccn3ncnc(Nc4ccc(Oc5ccn6ncnc6c5)c(C)c4)c23)C1` (stereo not drawn) [Example 79, N-(1-(4-((4-([1,2,4]triazolo[1,5-a]pyridin-7-yloxy)-3-methylphenyl)amino)pyrrolo[2,1-f][1,2,4]triazin-5-yl)pyrrolidin-3-yl)acrylamide]: the GI50 is below 200 nM on BaF3_HER2WT cells, 200 to 500 nM on BaF3_HER2YVMA cells and 1500 to 5000 nM on BaF3_EGFRWT cells.

On to `Cc1cc(Nc2ncnn3ccc(N4CCCN(C(=O)/C=C/CN5CCOCC5)CC4)c23)ccc1Oc1ccn2ncnc2c1` [Example 80, (E)-1-(4-(4-((4-([1,2,4]triazolo[1,5-a]pyridin-7-yloxy)-3-methylphenyl)amino)pyrrolo[2,1-f][1,2,4]triazin-5-yl)-1,4-diazepan-1-yl)-4-morpholinobut-2-en-1-one], for which the GI50 at BaF3_HER2WT cells is below 200 nM; at BaF3_HER2YVMA cells, 1500 to 5000 nM; at BaF3_EGFRWT cells it was 1500 to 5000 nM.

Take `Cc1cc(Nc2ncnn3ccc(N4CC(NC(=O)/C=C/CN5CCOCC5)C4)c23)ccc1Oc1ccn2ncnc2c1` [Example 81, (E)-N-(1-(4-((4-([1,2,4]triazolo[1,5-a]pyridin-7-yloxy)-3-methylphenyl)amino)pyrrolo[2,1-f][1,2,4]triazin-5-yl)azetidin-3-yl)-4-morpholinobut-2-enamide]: the results for the GI50 at BaF3_HER2WT cells, on BaF3_HER2YVMA cells and at BaF3_EGFRWT cells were 200 to 500 nM, 1500 to 5000 nM and 1500 to 5000 nM, respectively.

For the compound `Cc1cc(Nc2ncnn3ccc(C4CN(C(=O)/C=C/CN5CCC(F)(F)C5)C4)c23)ccc1Oc1ccn2ncnc2c1` [Example 84, (E)-1-(3-(4-((4-([1,2,4]triazolo[1,5-a]pyridin-7-yloxy)-3-methylphenyl)amino)pyrrolo[2,1-f][1,2,4]triazin-5-yl)azetidin-1-yl)-4-(3,3-difluoropyrrolidin-1-yl)but-2-en-1-one], the GI50 on BaF3_HER2WT cells was below 200 nM; on BaF3_HER2YVMA cells, 200 to 500 nM; at BaF3_EGFRWT cells, 1500 to 5000 nM.

As to `Cc1cc(Nc2ncnn3ccc(C4CN(C(=O)/C=C/CN5CCC(F)(F)CC5)C4)c23)ccc1Oc1ccn2ncnc2c1` [Example 85, (E)-1-(3-(4-((4-([1,2,4]triazolo[1,5-a]pyridin-7-yloxy)-3-methylphenyl)amino)pyrrolo[2,1-f][1,2,4]triazin-5-yl)azetidin-1-yl)-4-(4,4-difluoropiperidin-1-yl)but-2-en-1-one], the values for the GI50 on BaF3_HER2WT cells, at BaF3_HER2YVMA cells and on BaF3_EGFRWT cells were below 200 nM, below 200 nM and 1500 to 5000 nM, respectively.

In the case of `Cc1cc(Nc2ncnn3ccc(C4CN(C(=O)/C(C#N)=C/C(C)(C)C)C4)c23)ccc1Oc1ccn2ncnc2c1` [Example 89, (E)-2-(3-(4-((4-([1,2,4]triazolo[1,5-a]pyridin-7-yloxy)-3-methylphenyl)amino)pyrolo[2,1-f][1,2,4]triazin-5-yl)azetidine-1-carbonyl)-4,4-dimethylpent-2-enenitrile], the GI50 on BaF3_HER2WT cells, at BaF3_HER2YVMA cells and at BaF3_EGFRWT cells was 1500 to 5000 nM each time.

With `Cc1cc(Nc2ncnn3ccc(C4CN(C(=O)/C(F)=C/C5CCCN5C)C4)c23)ccc1Oc1ccn2ncnc2c1` (stereo not drawn) [Example 92, (Z)-1-(3-(4-((4-([1,2,4]triazolo[1,5-a]pyridin-7-yloxy)-3-methylphenyl)amino)pyrrolo[2,1-f][1,2,4]triazin-5-yl)azetidin-1-yl)-2-fluoro-3-(1-methylpyrrolidin-2-yl)prop-2-en-1-one], the GI50 at BaF3_HER2WT cells is below 200 nM; at BaF3_HER2YVMA cells it was below 200 nM; on BaF3_EGFRWT cells, 1500 to 5000 nM.

Consider `COC1CN(C/C=C/C(=O)N2CCC(c3ccn4ncnc(Nc5ccc(Oc6ccn7ncnc7c6)c(C)c5)c34)CC2)C1` [Example 117, (E)-1-(4-(4-((4-([1,2,4]triazolo[1,5-a]217midazol-7-yloxy)-3-methylphenyl)amino)pyrrolo[2,1-f][1,2,4]triazin-5-yl)piperidin-1-yl)-4-(3-methoxyazetidin-1-yl)but-2-en-1-one], for which the GI50 on BaF3_HER2WT cells is below 200 nM; at BaF3_HER2YVMA cells, below 200 nM; on BaF3_EGFRWT cells it was 1500 to 5000 nM.

Take `COC1CCN(C/C=C/C(=O)N2CCC(c3ccn4ncnc(Nc5ccc(Oc6ccn7ncnc7c6)c(C)c5)c34)CC2)C1` (stereo not drawn) [Example 118, E-1-(4-(4-((4-([1,2,4]triazolo[1,5-a]217midazol-7-yloxy)-3-methylphenyl)amino)pyrrolo[2,1-f][1,2,4]triazin-5-yl)piperidin-1-yl)-4-(3-methoxypyrrolidin-1-yl)but-2-en-1-one]: the GI50 is below 200 nM at BaF3_HER2WT cells, below 200 nM at BaF3_HER2YVMA cells and 1500 to 5000 nM at BaF3_EGFRWT cells.

With `Cc1cc(Nc2ncnn3ccc(C4CCN(C(=O)/C=C/CN5CC6COCC6C5)CC4)c23)ccc1Oc1ccn2ncnc2c1` (stereo not drawn) [Example 119, E-1-(4-(4-((4-([1,2,4]triazolo[1,5-a]218midazol-7-yloxy)-3-methylphenyl)amino)pyrrolo[2,1-f][1,2,4]triazin-5-yl)piperidin-1-yl)-4-(tetrahydro-1H-furo[3,4-c]pyrrol-5(3H)-yl)but-2-en-1-one], the values for the GI50 at BaF3_HER2WT cells, at BaF3_HER2YVMA cells and on BaF3_EGFRWT cells were below 200 nM, below 200 nM and 1500 to 5000 nM, respectively.

`Cc1cc(Nc2ncnn3ccc(C4CCN(C(=O)/C=C/CN5CCC6(COC6)C5)CC4)c23)ccc1Oc1ccn2ncnc2c1` [Example 120, E-1-(4-(4-((4-([1,2,4]triazolo[1,5-a]218midazol-7-yloxy)-3-methylphenyl)amino)pyrrolo[2,1-f][1,2,4]triazin-5-yl)piperidin-1-yl)-4-(2-oxa-6-azaspiro[3.4]octan-6-yl)but-2-en-1-one]: the GI50 on BaF3_HER2WT cells was below 200 nM; on BaF3_HER2YVMA cells, below 200 nM; at BaF3_EGFRWT cells it was 1500 to 5000 nM.
